In US7071231B2, “Naphthalene ureas as glucose uptake enhancers” (Telik, Inc., priority 1999, dated 2006):
Structures can show the parent of a compound that is named as a salt.

Key:
[1] = target: T1, β-kinase domain of the human insulin receptor (CKD) (Homo sapiens, UniProt P06213); test: 32P-cytoplasmic kinase domain (CKD) autophosphorylation assay; assay type: biochemical; details: phosphorylation of CKD expressed as % of the vehicle level; 10 minutes at room temperature; compound concentration not given
T1 construct: The complete β-kinase domain of the human insulin receptor (CKD) was expressed in, and purified from, baculovirus; made in house
Description: ^32P-cytoplasmic Kinase Domain (CKD) Autophosphorylation Assay The insulin signaling pathway is activated through stimulation of the insulin receptor. A major component of this activation is the phosphorylation of a specific portion of the receptor called the β-kinase domain. The complete β-kinase domain of the human insulin receptor (CKD) was expressed in, and purified from, baculovirus. CKD (4.0μg/ml), in a solution of 29 mM HEPES (pH 7.6), 0.05% Triton X-100, 10 mM MgCl2, 2 mM MnCl2 (50 μl final volume), was combined with 50 μM ATP, and 5 μCi ^32P-ATP (3000Ci/mmol.). A test compound, or the vehicle (dimethyl sulfoxide (DMSO)) was added to a final DMSO concentration of 1%. The mixture was incubated for 10 minutes at room temperature. The reaction was terminated by the addition of 10 μl 200 mM EDTA. A 30 μl volume was removed, mixed with 5 μl of 6× Laemmeli sodium dodecyl sulfate (SDS) treatment buffer, and heated to 94° C. for 5 minutes. A 20 μl aliquot was then run an SDS-PAGE gel. The radioactivity incorporated into the CKD band was quantified by phosphorimaging of the gel, or scintillation counting of the excised bands. The potency of a compound for increasing phosphorylation was expressed as % of the vehicle level.

3T3 L1 fibroblasts = test: Glucose transport activity assay (14C-2-deoxy-D-glucose uptake); assay type: cell-based; details: Mus musculus; EC (effective concentration) for increase in glucose transport; 14C-2-deoxy-D-glucose, 3T3 L1 cells; read-out: Concentration (μM) to reach >150% activity of vehicle control
In short: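 Differentiated 3T3 L1 adipocytes (IBMX/dexamethasone/insulin induction), serum-starved overnight, preincubated 30 min at 37 °C with compound ± insulin in pH 7.4 salt buffer, then 30 min with 5 μCi/ml 14C-2-deoxy-D-glucose. Lysate radioactivity counted; EC = concentration raising uptake above 150% of vehicle control.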

T1 sequence (P06213 980-1382 limits assumed): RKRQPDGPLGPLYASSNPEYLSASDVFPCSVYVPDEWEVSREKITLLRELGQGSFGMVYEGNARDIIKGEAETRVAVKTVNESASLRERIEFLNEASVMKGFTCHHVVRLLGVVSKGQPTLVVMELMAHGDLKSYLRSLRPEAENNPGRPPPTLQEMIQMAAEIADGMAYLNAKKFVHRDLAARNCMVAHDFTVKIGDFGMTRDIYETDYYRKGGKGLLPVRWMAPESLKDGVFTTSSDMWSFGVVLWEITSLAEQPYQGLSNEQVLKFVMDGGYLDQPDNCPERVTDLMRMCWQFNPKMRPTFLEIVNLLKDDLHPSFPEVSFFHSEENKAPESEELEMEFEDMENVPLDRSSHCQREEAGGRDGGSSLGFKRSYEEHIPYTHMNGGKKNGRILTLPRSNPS

SMILES	% Activity vs. Control [1]	EC (150% of vehicle control) (3T3 L1 fibroblasts)
O=C(Nc1ccc2ccc(S(=O)(=O)O)cc2c1)Nc1ccc2ccc(S(=O)(=O)O)cc2c1 [Compound 3, 7-{[(7-sulfo-2-naphthyl)amino]carbonylamino}naphthalene-2-sulfonic acid disodium salt]	88%	3.2 µM
Cc1ccc(OS(=O)(=O)c2cccc(NS(=O)(=O)c3ccc4ccc(NC(=O)Nc5ccc6ccc(S(=O)(=O)Nc7cccc(S(=O)(=O)Oc8ccc(C)cc8)c7)cc6c5)cc4c3)c2)cc1 [Compound 9, 4-methylphenyl 3-[({7-[(N-{7-[({3-[(4-methylphenyl)oxysulfonyl]phenyl}amino)sulfonyl]-2-naphthyl}carbamoyl)amino]-2-naphthyl}sulfonyl)amino]benzenesulfonate]	118%	–
Cc1ccc(OS(=O)(=O)c2cccc(NS(=O)(=O)c3cc(O)c4ccc(NC(=O)Nc5ccc6c(O)cc(S(=O)(=O)Nc7cccc(S(=O)(=O)Oc8ccc(C)cc8)c7)cc6c5)cc4c3)c2)cc1 [Compound 11, 4-methylphenyl 3-[({4-hydroxy-7-[(N-{5-hydroxy-7-[({3-[(4-methylphenyl)oxysulfonyl]phenyl}amino)sulfonyl](2-naphthyl)}carbamoyl)amino]-2-naphthyl}sulfonyl)amino]benzenesulfonate]	96%	–
O=C(Nc1ccc2ccc(S(=O)(=O)O)cc2c1)Nc1ccc2ccc(S(=O)(=O)Nc3cccc(S(=O)(=O)O)c3)cc2c1 [Compound 12, 7-{[(7-{[(3-sulfophenyl)amino]sulfonyl}-2-naphthyl)amino]carbonylamino}naphthalene-2-sulfonic acid disodium salt]	131%	–
O=C(Nc1ccc2c(O)cc(S(=O)(=O)O)cc2c1)Nc1ccc2c(O)cc(S(=O)(=O)Nc3cccc(S(=O)(=O)O)c3)cc2c1 [Compound 14, 4-hydroxy-7-{[(5-hydroxy-7-{[(3-sulfophenyl)amino]sulfonyl}(2-naphthyl))amino]carbonylamino}naphthalene-2-sulfonic acid]	110%	–
O=C(Nc1ccc2c(O)c(Br)c(S(=O)(=O)O)cc2c1)Nc1ccc2c(O)c(Br)c(S(=O)(=O)O)cc2c1 [Compound 16, 3-bromo-7-{[(6-bromo-5-hydroxy-7-sulfo(2-naphthyl))amino]carbonylamino}-4-hydroxynaphthalene-2-sulfonic acid disodium salt]	144%	32 µM
NS(=O)(=O)c1cccc(NS(=O)(=O)c2ccc3ccc(NC(=O)Nc4ccc5ccc(S(=O)(=O)Nc6cccc(S(N)(=O)=O)c6)cc5c4)cc3c2)c1 [Compound 23, N-(7-{[(3-sulfamoylphenyl)amino]sulfonyl}(2-naphthyl))[(7-{[(3-sulfamoylphenyl)amino]sulfonyl}(2-naphthyl))amino]carboxamide]	80%	10 µM
COC(=O)c1ccc(NS(=O)(=O)c2cc(O)c3ccc(NC(=O)Nc4ccc5c(O)cc(S(=O)(=O)O)cc5c4)cc3c2)cc1 [Compound 26, 4-hydroxy-7-({[5-hydroxy-7-({[4-(methoxycarbonyl)phenyl]amino}sulfonyl)(2-naphthyl)]amino}carbonylamino)naphthalene-2-sulfonic acid]	124%	32 µM
COC(=O)c1ccc(NS(=O)(=O)c2cc(O)c3ccc(NC(=O)Nc4ccc5c(O)cc(S(=O)(=O)Nc6ccc(C(=O)OC)cc6)cc5c4)cc3c2)cc1 [Compound 27, methyl 4-({[4-hydroxy-7-({[5-hydroxy-7-({[4-(methoxycarbonyl)phenyl]amino}sulfonyl)(2-naphthyl)]amino}carbonylamino)-2-naphthyl]sulfonyl}amino)benzoate]	112%	–
O=C(Nc1ccc2c(O)cc(S(=O)(=O)O)cc2c1)Nc1ccc2c(O)cc(S(=O)(=O)Nc3ccc(C(=O)O)cc3)cc2c1 [Compound 28, 4-{[(4-hydroxy-7-{[N-(5-hydroxy-7-sulfo(2-naphthyl))carbamoyl]amino}-2-naphthyl)sulfonyl]amino}benzoic acid]	124%	32 µM
COC(=O)c1cccc(NS(=O)(=O)c2ccc3ccc(NC(=O)Nc4ccc5ccc(S(=O)(=O)Nc6cccc(C(=O)OC)c6)cc5c4)cc3c2)c1 [Compound 39, methyl 3-({[7-({[7-({[3-(methoxycarbonyl)phenyl]amino}sulfonyl)-2-naphthyl]amino}carbonylamino)-2-naphthyl]sulfonyl}amino)benzoate]	93%	32 µM
O=C(Nc1ccc2ccc(S(=O)(=O)Nc3cccc(C(=O)O)c3)cc2c1)Nc1ccc2ccc(S(=O)(=O)Nc3cccc(C(=O)O)c3)cc2c1 [Compound 40, 3-{[(7-{[N-(7-{[(3-carboxyphenyl)amino]sulfonyl}-2-naphthyl)carbamoyl]amino}-2-naphthyl)sulfonyl]amino}benzoic acid]	130%	3.2 µM
O=C(Nc1ccc2c(O)cc(S(=O)(=O)Nc3cccc(C(=O)O)c3)cc2c1)Nc1ccc2c(O)cc(S(=O)(=O)Nc3cccc(C(=O)O)c3)cc2c1 [Compound 42, 3-{[(7-{[N-(7-{[(3-carboxyphenyl)amino]sulfonyl}-5-hydroxy(2-naphthyl))carbamoyl]amino}-4-hydroxy-2-naphthyl)sulfonyl]amino}benzoic acid]	124%	3.2 µM
O=C(Nc1ccc2ccc(S(=O)(=O)Nc3ccccc3)cc2c1)Nc1ccc2ccc(S(=O)(=O)Nc3ccccc3)cc2c1 [Compound 76, N-{7-[(phenylamino)sulfonyl](2-naphthyl)}({7-[(phenylamino)sulfonyl](2-naphthyl)}amino)carboxamide]	89%	–
O=C(Nc1ccc2ccc(S(=O)(=O)Nc3cccnc3)cc2c1)Nc1ccc2ccc(S(=O)(=O)Nc3cccnc3)cc2c1 [Compound 77, N-{7-[(3-pyridylamino)sulfonyl](2-naphthyl)}({7-[(3-pyridylamino)sulfonyl](2-naphthyl)}amino)carboxamide]	171%	3.2 µM
NS(=O)(=O)c1ccc2ccc(NC(=O)Nc3ccc4ccc(S(N)(=O)=O)cc4c3)cc2c1 [Compound 89, N-(7-sulfamoyl(2-naphthyl))[(7-sulfamoyl(2-naphthyl))amino]carboxamide]	104%	3.2 µM
CCOC(=O)COc1cc(S(=O)(=O)O)cc2cc(NC(=O)Nc3ccc4c(OCC(=O)OCC)cc(S(=O)(=O)O)cc4c3)ccc12.N.N [Compound 95, 4-[(ethoxycarbonyl)-methoxy]-7-[({5-[(ethoxycarbonyl)methoxy]-7-sulfo(2-naphthyl)}amino)-carbonylamino]-naphthalene-2-sulfonic acid, diammonium salt]	101%	–
O=C(O)COc1cc(S(=O)(=O)[O-])cc2cc(NC(=O)Nc3ccc4c(OCC(=O)O)cc(S(=O)(=O)[O-])cc4c3)ccc12.[Na+].[Na+] [Compound 97, 2-[6-({N-[5-(carboxymethoxy)-7-sulfo(2-naphthyl)]carbamoyl}amino)-3-sulfonaphthyloxy]acetic acid disodium salt]	99%	–
O=C(Nc1ccc2c(OCc3ccccc3S(=O)(=O)O)cc(S(=O)(=O)O)cc2c1)Nc1ccc2c(OCc3ccccc3S(=O)(=O)O)cc(S(=O)(=O)O)cc2c1 [Compound 100, 4-[(2-sulfophenyl)methoxy]-7-[({7-sulfo-5-[(2-sulfophenyl)methoxy](2-naphthyl)}amino)carbonylamino]naphthalene-2-sulfonic acid]	79%	–
O=C(Nc1ccc2c(OCCCS(=O)(=O)O)cc(S(=O)(=O)O)cc2c1)Nc1ccc2c(OCCCS(=O)(=O)O)cc(S(=O)(=O)O)cc2c1 [Compound 101, 4-(3-sulfopropoxy)-7-({[7-sulfo-5-(3-sulfopropoxy)(2-naphthyl)]amino}carbonylamino)naphthalene-2-sulfonic acid]	104%	–
O=C(Nc1ccc2c(O)cc(S(=O)(=O)O)cc2c1)Nc1ccc2c(OCCCS(=O)(=O)O)cc(S(=O)(=O)O)cc2c1 [Compound 102, 4-hydroxy-7-({[7-sulfo-5-(3-sulfopropoxy)(2-naphthyl)]amino}carbonylamino)naphthalene-2-sulfonic acid]	115%	–
